Experimental data: the supplement of paper PMC10949913
Counter-ions that a name gives are not always drawn. ± gives the standard deviation of the averaged measurements.

Key:
[1] = system: CU-ACC1; experiment: ExcessHSA synergy score with TAK-243; higher = less synergy (negative = synergistic); details: combined with: TAK-243 (MLN-7243) matrix, 9-point 1:2 dilution
Procedure: (§1)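 Each drug was tested at 9 points with 1:2 dilution; viability was read by CellTiter-Glo as in the single-agent screen. Synergy is scored as ExcessHSA (sum of excess over highest single agent; negative = synergy) and the Beta interaction parameter (<1 synergy).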

[2] = system: NCI-H295R; experiment: as above; details: combined with: TAK-243 (MLN-7243) matrix, 9-point 1:2 dilution
Procedure: as §1

| Compound | ExcessHSA synergy score with TAK-243 [1] | ExcessHSA synergy score with TAK-243 [2] |
| --- | --- | --- |
| Nc1ncnc2c1ncn2C(C=O)OC(C=O)CO (stereo not drawn) [Adenosine Dialdehyde] | 349 | 712 |
| COc1c(OCCCN2CCOCC2)ccc2c3n(c(=NC(=O)c4cnc(N)nc4)nc12)CCN3 [Copanlisib] | 70.4 | 87 |
| CSC[C@H]1CN(Cc2c[nH]c3c(N)ncnc23)C[C@@H]1O [MT-DADMe-ImmA] | -323 | 422 |
| CCOC(=O)c1ccc(C#Cc2ccc3c(c2)C(C)(C)CCS3)nc1 [Tazarotene] | 230 | 136 |
| CS(=O)(=O)c1ccc(Oc2cc(F)cc(C#N)c2)c2c1[C@H](O)[C@H](F)[C@@H]2F [PT-2977] | 217 | 801 |
| CN(C)C/C=C/C(=O)Nc1ccc(C(=O)Nc2cccc(Nc3ncc(Cl)c(-c4c[nH]c5ccccc45)n3)c2)cc1 [THZ1] | -55.8 | -128 |
| CC1=C(/C=C/C(C)=C/C=C/C(C)=C\C(=O)O)C(C)(C)CCC1 [Isotretinoin] | 563 | 636 |
| Cc1nc(-c2nc(-c3ccc(OC(F)(F)F)cc3)no2)nn1Cc1cccc(N2CCC(S(C)(=O)=O)CC2)c1 | 422 | 691 |
| Nc1ccn([C@@H]2O[C@H](CO)[C@@H](O)[C@@H]2O)c(=O)n1 [Cytarabine] | 457 | 789 |
| C#CCC(Cc1cnc2nc(N)nc(N)c2n1)c1ccc(C(=O)N[C@@H](CCC(=O)O)C(=O)O)cc1 (stereo partly drawn) [Pralatrexate] | 137 | -57.8 |
| C[C@H]1CCN1c1nc(N2C[C@@H]3[C@@H](CC(=O)O)[C@@H]3C2)cc(C(F)(F)F)n1 [Ketohexokinase inhibitor 1] | -31.2 | 49.1 |
| Nc1nc(OCc2ccccc2)c2nc[nH]c2n1 [O6-Benzylguanine] | -248 | 45.7 |
| NC(=O)c1c(NC(=O)COCc2cc(-c3cccs3)on2)sc2c1CCCC2 | 37.9 | 122 |
| CC(C)[C@@H](CS(=O)(=O)C(C)C)N1C(=O)[C@@](C)(CC(=O)O)C[C@H](c2cccc(Cl)c2)[C@H]1c1ccc(Cl)cc1 [AMG 232] | -130 | 236 |
| CC(C)Nc1cc(-c2c[nH]c(C(=O)N[C@H](CO)c3cccc(Cl)c3)c2)c(Cl)cn1 [Ulixertinib] | -564 | -674 |
| CC(C)NC[C@@H](C(=O)N1CCN(c2ncnc3c2[C@H](C)C[C@H]3O)CC1)c1ccc(Cl)cc1 [Ipatasertib] | 85.6 | -60.3 |
| CC1(C)CC[C@]2(NC(=O)C(C)(F)F)CC[C@]3(C)[C@H](C(=O)C=C4[C@@]5(C)C=C(C#N)C(=O)C(C)(C)[C@@H]5CC[C@]43C)[C@@H]2C1 [Omaveloxolone (RTA-408)] | 367 | 323 |
| CC[C@@]1(O)C(=O)OCc2c1cc1n(c2=O)Cc2cc3c(CN(C)C)c(O)ccc3nc2-1 [Topotecan hydrochloride] | -710 | -194 |
| O=c1[nH]c(CSC2CCC(O)CC2)nc2cc(OCC3CC3)cc(F)c12 (stereo not drawn) | 650 | 1170 |
| Cc1ccc(NC(=O)NCc2ccc3c(c2)CN(C2CCC(=O)NC2=O)C3=O)cc1Cl (stereo not drawn) [CC-885] | 356 | 370 |
| CNC(=O)c1cccc(-c2ccc3c(N4CCOC[C@@H]4C)nc(N4CCOC[C@@H]4C)nc3n2)c1 [Vistusertib] | -211 ± 410 | -549 ± 350 |
| CNc1nc(NC2CCN(Cc3ccc4c(cc(C#N)n4C[C@H](C)N4CCN(S(C)(=O)=O)CC4)c3C)CC2)c2cc(CC(F)(F)F)sc2n1 [Ziftomenib (KO-539)] | -443 | -888 |
| CO[C@H]1CN(C)C(=O)c2cc(NC(=O)NC(C)C)ccc2OC[C@H](C)N(Cc2ccc(-c3ccccn3)cc2)C[C@@H]1C [BD98] | -213 | -760 |
| CC(=O)N1CCC(Nc2cc(C(=O)NC[C@H](O)CN3CCc4ccccc4C3)ncn2)CC1 | 517 | 649 |
